Measured values as given in ChEMBL document CHEMBL1154070, “QSAR study of Akt/protein kinase B (PKB) inhibitors using support vector machine” (Eur J Med Chem, 2009).
pIC50: −log10 of the molar value.

Molecular target: RAC-alpha serine/threonine-protein kinase (Homo sapiens, UniProt P31749)
Assay: Inhibition of Akt

RAC-alpha serine/threonine-protein kinase, sequence (P31749 whole entry): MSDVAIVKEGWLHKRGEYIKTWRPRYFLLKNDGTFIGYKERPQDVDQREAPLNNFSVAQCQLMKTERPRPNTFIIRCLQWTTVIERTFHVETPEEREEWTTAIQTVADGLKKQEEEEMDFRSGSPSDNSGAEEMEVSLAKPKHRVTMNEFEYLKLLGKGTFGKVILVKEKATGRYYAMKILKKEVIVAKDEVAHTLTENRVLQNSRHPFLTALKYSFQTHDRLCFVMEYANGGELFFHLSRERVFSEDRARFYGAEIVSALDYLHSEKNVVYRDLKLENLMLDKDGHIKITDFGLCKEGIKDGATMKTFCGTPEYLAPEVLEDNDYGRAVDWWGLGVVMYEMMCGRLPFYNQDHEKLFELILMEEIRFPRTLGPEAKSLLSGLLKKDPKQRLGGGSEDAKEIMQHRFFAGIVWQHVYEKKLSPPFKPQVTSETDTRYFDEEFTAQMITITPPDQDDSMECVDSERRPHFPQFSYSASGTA

Row | SMILES | pIC50
1 | N[C@H](CNc1cnc(Cl)c(/C=C/c2ccncc2)c1)Cc1c[nH]c2ccccc12 | 7.10
2 | N[C@H](COc1cncc(/C=C/c2ccncc2)c1)C(c1ccccc1)c1ccccc1 | 6.56
3 | N[C@H](COc1cncc(-c2ccc3c(=O)[nH]ccc3c2)c1)Cc1c[nH]c2ccccc12 | 5.99
4 | N[C@H](COc1cncc(-c2ccncc2)c1)Cc1c[nH]c2ccccc12 | 6.61
5 | N[C@H](COc1cncc(C(=O)Nc2ccncc2)c1)Cc1c[nH]c2ccccc12 | 5.78
6 | Nc1nccc2cc(-c3cncc(OC[C@@H](N)Cc4c[nH]c5ccccc45)c3)ccc12 | 6.73
7 | N[C@H](COc1cncc(-c2ccc3c(c2)CC(=O)N3)c1)Cc1ccccc1 | 7.80
8 | Cc1n[nH]c2cnc(-c3cncc(OC[C@@H](N)Cc4ccccc4)c3)cc12 | 7.85
9 | N[C@H](COc1cncc(-c2ccc3c(c2)/C(=C/c2ccc[nH]2)C(=O)N3)c1)Cc1ccccc1 | 9.22
10 | N[C@H](COc1cncc(-c2cc3ccncc3s2)c1)Cc1c[nH]c2ccccc12 | 6.75
11 | N[C@H](COc1cncc(-c2ccc3ccccc3c2)c1)Cc1c[nH]c2ccccc12 | 5.95
12 | O=C1C(Sc2cccc(Cl)c2Cl)=C(Cl)C(=O)c2[nH]ncc21 | 4.91
13 | Cc1cc(C)c(C[C@H](N)COc2cncc(-c3cc4c(C)n[nH]c4cn3)c2)c(C)c1 | 7.41
14 | Cc1n[nH]c2cnc(-c3cncc(OC[C@@H](N)Cc4ccc(C(F)(F)F)cc4)c3)cc12 | 7.74
15 | N[C@H](COc1cncc(-c2ccc3[nH]nc(-c4ccc[nH]4)c3c2)c1)Cc1c[nH]c2ccccc12 | 8.92
16 | N[C@H](COc1cncc(-c2ccc(NC(=O)Nc3ccccc3)cn2)c1)Cc1c[nH]c2ccccc12 | 5.95
17 | N[C@H](COc1cncc(-c2ccc3c(c2)C(c2cccs2)C(=O)N3)c1)Cc1c[nH]c2ccccc12 (stereo partly specified) | 9.05
18 | CN(C)c1n[nH]c2ccc(-c3cncc(OC[C@@H](N)Cc4c[nH]c5ccccc45)c3)cc12 | 7.74
19 | N[C@H](COc1cncc(-c2ccc3[nH]nc(C4CC4)c3c2)c1)Cc1c[nH]c2ccccc12 | 8.59
20 | CCc1ncc(OC[C@@H](N)Cc2c[nH]c3ccccc23)cc1-c1ccc2cnccc2c1 | 9.10
21 | N[C@H](COc1cncc(-c2ccc3c(c2)C(c2c[nH]c4ccccc24)C(=O)N3)c1)Cc1c[nH]c2ccccc12 (stereo partly specified) | 6.82
22 | Cc1ccc(F)cc1C[C@H](N)COc1cncc(-c2cc3c(C)n[nH]c3cn2)c1 | 8.41
23 | N[C@H](COc1cncc(-c2ccc3c(c2)C(c2ccco2)C(=O)N3)c1)Cc1c[nH]c2ccccc12 (stereo partly specified) | 9.77
24 | N[C@H](COc1cncc(-c2ccc3c(c2)C(c2ccccn2)C(=O)N3)c1)Cc1c[nH]c2ccccc12 (stereo partly specified) | 7.99

Row | SMILES | pIC50
25 | Cc1n[nH]c2cnc(-c3cncc(OC[C@@H](N)Cc4c(F)cccc4F)c3)cc12 | 7.18
26 | Cc1cc(C[C@H](N)COc2cncc(-c3cc4c(C)n[nH]c4cn3)c2)ccc1F | 8.60
27 | N[C@H](COc1cncc(-c2ccc3ncccc3c2)c1)Cc1c[nH]c2ccccc12 | 6.51
28 | N[C@H](COc1cncc(-c2ccc3nnccc3c2)c1)Cc1c[nH]c2ccccc12 | 6.67
29 | Cc1n[nH]c2cnc(-c3cncc(OC[C@@H](N)Cc4cccc(F)c4)c3)cc12 | 8.08
30 | Cc1n[nH]c2cnc(-c3cncc(OC[C@@H](N)Cc4ccc(Br)cc4)c3)cc12 | 8.30
31 | CCc1n[nH]c2ccc(-c3cncc(OC[C@@H](N)Cc4c[nH]c5ccccc45)c3)cc12 | 8.94
32 | CC1C(=O)Nc2ccc(-c3cncc(OC[C@@H](N)Cc4c[nH]c5ccccc45)c3)cc21 (stereo partly specified) | 8.40
33 | N[C@H](COc1cncc(-c2ccc3c(c2)C(=O)C(=O)N3)c1)Cc1c[nH]c2ccccc12 | 8.27
34 | N[C@H](COc1cncc(-c2ccc3c(c2)C(C2CC2)C(=O)N3)c1)Cc1c[nH]c2ccccc12 (stereo partly specified) | 8.48
35 | O=c1[nH]c2ccccc2n1C1CCN(Cc2ccc(-c3nc4cc(-n5cnnn5)ccc4nc3-c3ccccc3)cc2)CC1 | 7.70
36 | Cn1cc(C(CN)Oc2cncc(/C=C/c3ccncc3)c2)c2ccccc21 (stereo unspecified) | 6.12
37 | O=c1[nH]c2ccccc2n1C1CCN(Cc2ccc(-c3nc4ccc(-n5cnnn5)cc4nc3-c3ccccc3)cc2)CC1 | 7.20
38 | N[C@H](COc1cncc(-c2ccc3[nH]nc(-c4ccccc4)c3c2)c1)Cc1c[nH]c2ccccc12 | 8.41
39 | N[C@H](COc1cncc(-c2ccc3[nH]nc(C=O)c3c2)c1)Cc1c[nH]c2ccccc12 | 5.73
40 | Cc1n[nH]c2cnc(-c3cncc(OC[C@@H](N)Cc4cccc(OCC5CCCCC5)c4)c3)cc12 | 5.87
41 | Cc1n[nH]c2cnc(-c3cncc(OC[C@@H](N)Cc4cccc(OCCN)c4)c3)cc12 | 7.33
42 | Cc1n[nH]c2cnc(-c3cncc(OC[C@@H](N)Cc4ccc(F)c(F)c4F)c3)cc12 | 7.92
43 | N[C@H](COc1cncc(-c2ccc3[nH]nc(-c4nccs4)c3c2)c1)Cc1c[nH]c2ccccc12 | 8.01
44 | CC(C)=C1C(=O)Nc2ccc(-c3cncc(OC[C@@H](N)Cc4c[nH]c5ccccc45)c3)cc21 | 7.10
45 | N[C@H](COc1cncc(-c2cnc3c(c2)CC(=O)N3)c1)Cc1c[nH]c2ccccc12 | 8.13
46 | Cc1cc(F)ccc1C[C@H](N)COc1cncc(-c2cc3c(C)n[nH]c3cn2)c1 | 8.22
47 | Cc1n[nH]c2cnc(-c3cncc(OC[C@@H](N)Cc4cccc(OCCN5CCOCC5)c4)c3)cc12 | 6.12
48 | Cc1ccc(C2C(=O)Nc3ccc(-c4cncc(OC[C@@H](N)Cc5c[nH]c6ccccc56)c4)cc32)o1 (stereo partly specified) | 9.15

Row | SMILES | pIC50
49 | N[C@H](COc1cncc(CCc2ccncc2)c1)Cc1c[nH]c2ccccc12 | 6.68
50 | N[C@H](COc1cncc(-c2ccc3c(c2)C(Cc2ccco2)C(=O)N3)c1)Cc1ccccc1 (stereo partly specified) | 8.85
51 | CC(C)c1nc(-c2ccccc2)c(-c2ccc(CN3CCC(n4c(=O)[nH]c5ccccc54)CC3)cc2)[nH]c1=O | 4.67
52 | Cc1n[nH]c2cnc(-c3cncc(OC[C@@H](N)Cc4cccc5c4OC(F)(F)O5)c3)cc12 | 7.85
53 | N[C@H](COc1cncc(-c2ccc3c(c2)C(c2ccc[nH]2)C(=O)N3)c1)Cc1c[nH]c2ccccc12 (stereo partly specified) | 8.82
54 | Cc1n[nH]c2cnc(-c3cncc(OC[C@@H](N)Cc4cccc(OCC5CCNCC5)c4)c3)cc12 | 8.17
55 | N[C@H](COc1cncc(-c2ccc3c(c2)C(c2cccnc2)C(=O)N3)c1)Cc1c[nH]c2ccccc12 (stereo partly specified) | 7.98
56 | N[C@H](COc1cncc(NC(=O)c2ccncc2)c1)Cc1c[nH]c2ccccc12 | 5.69
57 | N[C@H](COc1cncc(-c2ccc3[nH]nc(-c4cccs4)c3c2)c1)Cc1c[nH]c2ccccc12 | 8.89
58 | N[C@H](COc1cncc(-c2ccc(CO)cc2)c1)Cc1c[nH]c2ccccc12 | 5.40
59 | N[C@H](COc1cncc(-c2ccc3[nH]c(=O)sc3c2)c1)Cc1c[nH]c2ccccc12 | 7.00
60 | C(=C\c1cncc(OCC2CCN2)c1)/c1ccncc1 (stereo unspecified) | 4.96
61 | CCC1C(=O)Nc2ccc(-c3cncc(OC[C@@H](N)Cc4c[nH]c5ccccc45)c3)cc21 (stereo partly specified) | 7.28
62 | N[C@H](COc1cncc(-c2ccc3c(c2)C(F)(F)C(=O)N3)c1)Cc1c[nH]c2ccccc12 | 8.82
63 | N[C@H](COc1cncc(-c2ccc3c(c2)C(c2ccccc2)C(=O)N3)c1)Cc1c[nH]c2ccccc12 (stereo partly specified) | 8.23
64 | CCc1c(C)[nH]c(C2C(=O)Nc3ccc(-c4cncc(OC[C@@H](N)Cc5c[nH]c6ccccc56)c4)cc32)c1C (stereo partly specified) | 7.39
65 | Nc1n[nH]c2ccc(-c3cncc(OC[C@@H](N)Cc4c[nH]c5ccccc45)c3)cc12 | 8.54
66 | Cc1cc(C2C(=O)Nc3ccc(-c4cncc(OC[C@@H](N)Cc5c[nH]c6ccccc56)c4)cc32)oc1C (stereo partly specified) | 8.00
67 | N[C@H](COc1cncc(-c2ccc3[nH]nc(N4CCOCC4)c3c2)c1)Cc1c[nH]c2ccccc12 | 7.74
68 | N[C@H](COc1cncc(-c2ccc3c(c2)C(c2ncc[nH]2)C(=O)N3)c1)Cc1c[nH]c2ccccc12 (stereo partly specified) | 8.14
69 | N[C@H](COc1cncc(-c2cccc3cnccc23)c1)Cc1c[nH]c2ccccc12 | 6.48
70 | Cn1cccc1C1C(=O)Nc2ccc(-c3cncc(OC[C@@H](N)Cc4c[nH]c5ccccc45)c3)cc21 (stereo partly specified) | 8.09
71 | O=C1C(Nc2cc(F)ccc2F)=C(Cl)C(=O)c2[nH]ncc21 | 4.80
